{
  "source": "patent US8735414B2",
  "about": "(priority 2009, dated 2014)",
  "data": [
    {"system": "bicistronic HCV replicon (replicon RNA, GenBank Accession No. AJ242654)", "assay": "HCV Replicon Assay", "format": "cell-based", "settings": "Hepatitis C virus, 72 h, read-out: Replicon IC50", "units": {"IC50": "nM"}, "values": [
      {"smiles": "C[C@H](NS(=O)(=O)c1ccc(-c2c(C(N)=O)c3cc(F)c(C4CC4)cc3n2C2CCCC2)nc1)C(F)(F)F", "note": "[compound 838, 1-cyclopentyl-6-cyclopropyl-5-fluoro-2-(5-{[(2S)-1,1,1-trifluoropropan-2-yl]sulfamoyl}pyridin-2-yl)-1H-indole-3-carboxamide]", "IC50": "< 500"},
      {"smiles": "CC(C)NS(=O)(=O)c1cnc(-c2c(C#N)c3ccc(CF)cc3n2C2CCC2)nc1", "note": "[compound 315, 2-[3-cyano-1-cyclobutyl-6-(fluoromethyl)-1H-indol-2-yl]-N-(propan-2-yl)pyrimidine-5-sulfonamide]", "IC50": "< 500"},
      {"smiles": "C=CCc1cc2c(cc1F)c(Cl)c(-c1ccc(S(=O)(=O)N[C@@H](C)C(F)(F)F)cn1)n2-c1ncccn1", "note": "[compound 968, 6-[3-chloro-5-fluoro-6-(prop-2-en-1-yl)-1-(pyrimidin-2-yl)-1H-indol-2-yl]-N-[(2S)-1,1,1-trifluoropropan-2-yl]pyridine-3-sulfonamide]", "IC50": "500 to 2000"},
      {"smiles": "C[C@H](NS(=O)(=O)c1ccc(-c2c(C#N)c3cc(F)c(C4(C)OCCO4)cc3n2-c2ncccn2)nc1)C(F)(F)F", "note": "[compound 927, 6-[3-cyano-5-fluoro-6-(2-methyl-1,3-dioxolan-2-yl)-1-(pyrimidin-2-yl)-1H-indol-2-yl]-N-[(2S)-1,1,1-trifluoropropan-2-yl]pyridine-3-sulfonamide]", "IC50": "< 500"},
      {"smiles": "COc1ccnc(-n2c(-c3ccc(S(=O)(=O)N[C@@H](C)C(F)(F)F)cn3)c(C#N)c3cc(F)c(C)cc32)c1", "note": "[compound 816, 6-[3-cyano-5-fluoro-1-(4-methoxypyridin-2-yl)-6-methyl-1H-indol-2-yl]-N-[(2S)-1,1,1-trifluoropropan-2-yl]pyridine-3-sulfonamide]", "IC50": "< 500"},
      {"smiles": "Cc1cc2c(cc1F)cc(-c1ccc(S(=O)(=O)N[C@@H](C)C(F)(F)F)cn1)n2C1CCCC1", "note": "[compound 760, 6-(1-cyclopentyl-5-fluoro-6-methyl-1H-indol-2-yl)-N-[(2S)-1,1,1-trifluoropropan-2-yl]pyridine-3-sulfonamide]", "IC50": "< 500"},
      {"smiles": "NC(=O)c1c(-c2ccc(S(=O)(=O)NC(CF)CF)cn2)n(C2CCC2)c2cc(C3CC3)ccc12", "note": "[compound 582, 1-cyclobutyl-6-cyclopropyl-2-{5-[(1,3-difluoropropan-2-yl)sulfamoyl]pyridin-2-yl}-1H-indole-3-carboxamide]", "IC50": "< 500"},
      {"smiles": "Cc1cnc(-n2c(-c3ccc(S(=O)(=O)N[C@@H](C)C(F)(F)F)cn3)c(C#N)c3cc(F)c(C)cc32)cn1", "note": "[compound 865, 6-[3-cyano-5-fluoro-6-methyl-1-(5-methylpyrazin-2-yl)-1H-indol-2-yl]-N-[(2S)-1,1,1-trifluoropropan-2-yl]pyridine-3-sulfonamide]", "IC50": "< 500"},
      {"smiles": "Cc1ccc2c(C#N)c(-c3ccc(S(=O)(=O)N[C@@H](C)C4CC4)cn3)n(C3CCCC3)c2c1", "note": "[compound 426, 6-(3-cyano-1-cyclopentyl-6-methyl-1H-indol-2-yl)-N-[(1S)-1-cyclopropylethyl]pyridine-3-sulfonamide]", "IC50": "< 500"},
      {"smiles": "COC(=O)c1c(-c2ccc(NS(=O)(=O)C(C)(C)C)nc2)n(C2CCCCC2)c2cc(OCF)c(F)cc12", "note": "[compound 1099, methyl 2-{6-[(tert-butylsulfonyl)amino]pyridin-3-yl}-1-cyclohexyl-5-fluoro-6-(fluoromethoxy)-1H-indole-3-carboxylate]", "IC50": "500 to 2000"},
      {"smiles": "CC(C)(NS(=O)(=O)c1ccc(-c2c(C(=O)O)c3cc(F)c(OC(F)F)cc3n2C2CCCCC2)nc1)C(F)(F)F", "note": "[compound 928, 1-cyclohexyl-6-(difluoromethoxy)-5-fluoro-2-{5-[(1,1,1-trifluoro-2-methylpropan-2-yl)sulfamoyl]pyridin-2-yl}-1H-indole-3-carboxylic acid]", "IC50": "< 500"},
      {"smiles": "COc1cc2c(cc1F)c(C#N)c(-c1ccc(S(=O)(=O)N[C@@H](C)C(F)(F)F)cn1)n2C1CCC1", "note": "[compound 725, 6-(3-cyano-1-cyclobutyl-5-fluoro-6-methoxy-1H-indol-2-yl)-N-[(2S)-1,1,1-trifluoropropan-2-yl]pyridine-3-sulfonamide]", "IC50": "< 500"},
      {"smiles": "C[C@@H](NS(=O)(=O)c1ccc(-c2c(C#N)c3ccc(Cl)cc3n2C2CCCC2)nc1)C(F)(F)F", "note": "[compound 223, 6-(6-chloro-3-cyano-1-cyclopentyl-1H-indol-2-yl)-N-[(2R)-1,1,1-trifluoropropan-2-yl]pyridine-3-sulfonamide]", "IC50": "< 500"},
      {"smiles": "N#Cc1c(-c2ccc(S(=O)(=O)NC(CF)CF)cn2)n(CC2CC2)c2ccc(Cl)cc12", "note": "[compound 73, 6-[5-chloro-3-cyano-1-(cyclopropylmethyl)-1H-indol-2-yl]-N-(1,3-difluoropropan-2-yl)pyridine-3-sulfonamide]", "IC50": "< 500"},
      {"smiles": "Cc1cc2c(cc1F)c(C(=O)O)c(-c1ccc(S(=O)(=O)NC(C)(C)C)cn1)n2C1CCC1", "note": "[compound 776, 2-[5-(tert-butylsulfamoyl)pyridin-2-yl]-1-cyclobutyl-5-fluoro-6-methyl-1H-indole-3-carboxylic acid]", "IC50": "< 500"},
      {"smiles": "Cc1cc2c(cc1F)c(C#N)c(-c1ccc(S(=O)(=O)N[C@@H](C)C(F)(F)F)cn1)n2-c1ncccc1F", "note": "[compound 814, 6-[3-cyano-5-fluoro-1-(3-fluoropyridin-2-yl)-6-methyl-1H-indol-2-yl]-N-[(2S)-1,1,1-trifluoropropan-2-yl]pyridine-3-sulfonamide]", "IC50": "< 500"},
      {"smiles": "N#Cc1c(-c2ccc(S(=O)(=O)NC(CF)CF)cn2)n(C2CCCC2)c2cc(O)c(F)cc12", "note": "[compound 575, 6-(3-cyano-1-cyclopentyl-5-fluoro-6-hydroxy-1H-indol-2-yl)-N-(1,3-difluoropropan-2-yl)pyridine-3-sulfonamide]", "IC50": "< 500"},
      {"smiles": "CCc1cc2c(cc1F)c(C#N)c(-c1ccc(S(=O)(=O)N[C@@H](C)C(F)(F)F)cn1)n2-c1ncccn1", "note": "[compound 704, 6-[3-cyano-6-ethyl-5-fluoro-1-(pyrimidin-2-yl)-1H-indol-2-yl]-N-[(2S)-1,1,1-trifluoropropan-2-yl]pyridine-3-sulfonamide]", "IC50": "< 500"},
      {"smiles": "Cc1cc2c(cc1F)c(C#N)c(-c1ccc(S(=O)(=O)NC(C)(C)C)cn1)n2-c1ncccn1", "note": "[compound 824, N-tert-butyl-6-[3-cyano-5-fluoro-6-methyl-1-(pyrimidin-2-yl)-1H-indol-2-yl]pyridine-3-sulfonamide]", "IC50": "< 500"},
      {"smiles": "CSc1cc2c(C#N)c(-c3ccc(S(=O)(=O)N[C@@H](C)C(F)(F)F)cn3)n(C3CCC3)c2cc1OC(F)F", "note": "[compound 685, 6-[3-cyano-1-cyclobutyl-6-(difluoromethoxy)-5-(methylsulfanyl)-1H-indol-2-yl]-N-[(2S)-1,1,1-trifluoropropan-2-yl]pyridine-3-sulfonamide]", "IC50": "500 to 2000"},
      {"smiles": "C[C@H](NS(=O)(=O)c1ccc(-c2c(C(N)=O)c3cc(F)ccc3n2-c2ccccn2)nc1)C(F)(F)F", "note": "[compound 748, 5-fluoro-1-(pyridin-2-yl)-2-(5-{[(2S)-1,1,1-trifluoropropan-2-yl]sulfamoyl}pyridin-2-yl)-1H-indole-3-carboxamide]", "IC50": "< 500"},
      {"smiles": "C=CCc1cc2c(cc1F)cc(-c1ccc(S(=O)(=O)N[C@@H](C)C(F)(F)F)cn1)n2-c1ncccn1", "note": "[compound 969, 6-[5-fluoro-6-(prop-2-en-1-yl)-1-(pyrimidin-2-yl)-1H-indol-2-yl]-N-[(2S)-1,1,1-trifluoropropan-2-yl]pyridine-3-sulfonamide]", "IC50": "< 500"},
      {"smiles": "Cc1cc2c(cc1F)c(C(=O)O)c(-c1ccc(S(=O)(=O)N[C@@H](C)C(F)(F)F)cn1)n2C1CCCC1", "note": "[compound 758, (S)-1-cyclopentyl-5-fluoro-6-methyl-2-(5-(N-(1,1,1-trifluoropropan-2-yl)sulfamoyl)pyridin-2-yl)-1H-indole-3-carboxylic acid]", "IC50": "< 500"},
      {"smiles": "Cc1cc2c(cc1F)c(C#N)c(-c1ccc(S(=O)(=O)N[C@@H](C)C(F)(F)F)cn1)n2-c1ncc(F)cn1", "note": "[compound 924, 6-[3-cyano-5-fluoro-1-(5-fluoropyrimidin-2-yl)-6-methyl-1H-indol-2-yl]-N-[(2S)-1,1,1-trifluoropropan-2-yl]pyridine-3-sulfonamide]", "IC50": "< 500"},
      {"smiles": "C[C@H](NS(=O)(=O)c1ccc(-c2c(C#N)c3ccc(C4CC4)cc3n2-c2ncccn2)nc1)C(F)(F)F", "note": "[compound 650, 6-[3-cyano-6-cyclopropyl-1-(pyrimidin-2-yl)-1H-indol-2-yl]-N-[(2S)-1,1,1-trifluoropropan-2-yl]pyridine-3-sulfonamide]", "IC50": "< 500"},
      {"smiles": "N#Cc1c(-c2ccc(S(=O)(=O)NC(CF)CF)cn2)n(C2CCCC2)c2c(Cl)cccc12", "note": "[compound 88, 6-(7-chloro-3-cyano-1-cyclopentyl-1H-indol-2-yl)-N-(1,3-difluoropropan-2-yl)pyridine-3-sulfonamide]", "IC50": "< 500"},
      {"smiles": "Cc1cc2c(cc1F)cc(-c1ccc(S(=O)(=O)N[C@@H](C)C(F)(F)F)cn1)n2-c1cscn1", "note": "[compound 957, 6-[5-fluoro-6-methyl-1-(1,3-thiazol-4-yl)-1H-indol-2-yl]-N-[(2S)-1,1,1-trifluoropropan-2-yl]pyridine-3-sulfonamide]", "IC50": "500 to 2000"},
      {"smiles": "CC(C)NS(=O)(=O)c1ccc(-c2c(C#N)c3ccc(OC(F)(F)F)cc3n2C2CCC2)cn1", "note": "[compound 26, 5-[3-cyano-1-cyclobutyl-6-(trifluoromethoxy)-1H-indol-2-yl]-N-(propan-2-yl)pyridine-2-sulfonamide]", "IC50": "500 to 2000"},
      {"smiles": "Cc1cc2c(cc1F)c(C#N)c(-c1ccc(S(=O)(=O)N[C@H](C)C(F)(F)F)cn1)n2C1CCCC1", "note": "[compound 409, 6-(3-cyano-1-cyclopentyl-5-fluoro-6-methyl-1H-indol-2-yl)-N-[(2R)-1,1,1-trifluoropropan-2-yl]pyridine-3-sulfonamide]", "IC50": "< 500"},
      {"smiles": "Cc1cc2c(cc1F)c(C#N)c(-c1cc(C)c(S(=O)(=O)N[C@@H](C)C(F)(F)F)cn1)n2-c1ccccn1", "note": "[compound 854, 6-[3-cyano-5-fluoro-6-methyl-1-(pyridin-2-yl)-1H-indol-2-yl]-4-methyl-N-[(2S)-1,1,1-trifluoropropan-2-yl]pyridine-3-sulfonamide]", "IC50": "< 500"},
      {"smiles": "CC(C)NS(=O)(=O)c1cnc(-c2c(C#N)c3ccc(Cl)cc3n2C(C)C)nc1", "note": "[compound 156, 2-[6-chloro-3-cyano-1-(propan-2-yl)-1H-indol-2-yl]-N-(propan-2-yl)pyrimidine-5-sulfonamide]", "IC50": "500 to 2000"}
    ]}
  ]
}
